We go through nine molecules from article PMC5910394, “Mechanically interlocked functionalization of monoclonal antibodies” (Nature Communications, 2018).

The Kd is the constant that tells how readily two partners part at equilibrium. Low readings indicate tighter binding, high ones weaker binding.

The test system of assay [1] is memAb anti-HER2. Briefly: SPR binding kinetics of meditope variants to immobilized memAb anti-HER2. Conditions: n=1.
In assay [2] the target is Ile83Glu memAb anti-HER2. In words: SPR binding kinetics of meditope variants to immobilized Ile83Glu memAb anti-HER2.
The mark [3] stands for this setting: SPR Biacore T100, memAb on CM5 chip, HBS-EP+, 1:1 model, 25°C.

The structures appear in SMILES notation. Starred links: 1 amine or outer side, 2 acyl side, 3 side chain; linkers in the order of their positions; H or OH if unused. Positions of bridges follow the written chain, without caps; N, C: chain ends. Non-standard residues stand in square brackets, D forms with d. Residues, ends and D or L forms follow the SMILES beside them. X1 = [N-]=[N+]=NCCOCCOCCNC(=N)NCCC[C@H](N[*:1])C(=O)[*:2]; Dip = N[C@H](C(=O)O)C(c1ccccc1)c1ccccc1

In the case of `CC(C)C[C@@H]1NC(=O)[C@H](CCCNC(=N)N)NC(=O)[C@H](CCCNC(=N)N)NC(=O)[C@H]([C@@H](C)O)NC(=O)[C@H](CO)NC(=O)[C@H](CC(C)C)NC(=O)[C@H](CC(=O)O)NC(=O)[C@H](C(c2ccccc2)c2ccccc2)NC(=O)[C@H](CCC(N)=O)NC(=O)[C@@H](N)CSSC[C@@H](C(=O)O)NC(=O)[C@H](CCCCN)NC1=O`, the ka in assay [1] (setting [3]) is 0.92 M-1s-1 x 104. For the same molecule, in assay [1] (SPR, 25°C), the affinity, expressed as Kd, was 2600 nM and the kd worked out at 0.024 s⁻¹.

Turning to `CC(C)C[C@@H]1NC(=O)[C@H](CCCNC(=N)N)NC(=O)[C@H](CCCNC(=N)N)NC(=O)[C@H]([C@@H](C)O)NC(=O)[C@H](CO)NC(=O)[C@H](CC(C)C)NC(=O)[C@H](CC(=O)O)NC(=O)[C@H](Cc2ccc(O)cc2)NC(=O)[C@H](CCC(N)=O)NC(=O)[C@@H](N)CSSC[C@@H](C(=O)O)NC(=O)[C@H](CCCCN)NC1=O`, in assay [1] (setting [3]), the ka is 2.8 M-1s-1 x 104. Also, in assay [1] (SPR, 25°C), the Kd was found to be 3900 nM and the kd was 0.11 s⁻¹.

In the case of `CC(C)C[C@@H]1NC(=O)[C@H](C)NC(=O)[C@H](CCCNC(=N)N)NC(=O)[C@H](CO)NC(=O)[C@H](CO)NC(=O)[C@H](CC(C)C)NC(=O)[C@H](CC(N)=O)NC(=O)[C@H](Cc2ccc(O)cc2)NC(=O)[C@H](CCC(N)=O)NC(=O)[C@@H](N)CSSC[C@@H](C(=O)O)NC(=O)[C@H](CCCCN)NC1=O`, in assay [1] (setting [3]), the ka was 0.97 M-1s-1 x 104. Further, in assay [1] (SPR, 25°C), binding was put at a Kd of 3400 nM and the kd is 0.033 s⁻¹.

With `CC(C)C[C@@H]1NC(=O)[C@H](CCCNC(=N)N)NC(=O)[C@H](CCCNC(=N)N)NC(=O)[C@H]([C@@H](C)O)NC(=O)[C@H](CO)NC(=O)[C@H](CC(C)C)NC(=O)[C@H](CC(=O)O)NC(=O)[C@H](Cc2ccc(Br)cc2)NC(=O)[C@H](CCC(N)=O)NC(=O)[C@@H](N)CSSC[C@@H](C(=O)O)NC(=O)[C@H](CCCCN)NC1=O`, the ka in assay [1] (setting [3]) was 0.91 M-1s-1 x 104. In assay [1] (SPR, 25°C), the Kd turned out to be 4700 nM and the kd worked out at 0.042 s⁻¹.

As for `CC(C)C[C@@H]1NC(=O)[C@H](CCCNC(=N)N)NC(=O)[C@H](CCCNC(=N)N)NC(=O)[C@H]([C@@H](C)O)NC(=O)[C@H](CO)NC(=O)[C@H](CC(C)C)NC(=O)[C@H](CC(=O)O)NC(=O)[C@H](Cc2ccccc2)NC(=O)[C@H](CCC(N)=O)NC(=O)CCCCCCNC(=O)[C@H](CCCCN)NC1=O`, the ka in assay [1] (setting [3]) is 2.1 M-1s-1 x 104. In assay [1] (SPR, 25°C), binding was characterised by a dissociation constant (Kd) of 5700 nM and the kd came to 0.12 s⁻¹.

`CC(=O)N[C@H]1CSSC[C@@H](C(=O)NCC(=O)NCC(=O)N[C@@H](CO)C(=O)N[C@@H](CCCCN)C(=O)O)NC(=O)[C@H](CCCNC(=N)N)NC(=O)[C@H](CC(C)C)NC(=O)[C@H](CCCNC(=N)N)NC(=O)[C@H](CCCNC(=N)N)NC(=O)[C@H]([C@@H](C)O)NC(=O)[C@H](CO)NC(=O)[C@H](CC(C)C)NC(=O)[C@H](CC(=O)O)NC(=O)[C@H](Cc2ccccc2)NC(=O)[C@H](CCC(N)=O)NC1=O`: the ka in assay [1] (setting [3]) is 2.8 M-1s-1 x 104; in assay [1] (SPR, 37 °C) it was 7.5 M-1s-1 x 104; in assay [2] (SPR, 25°C, n=1) it was 71 M-1s-1 x 104; in assay [2] (SPR, 37°C, n=4, mean (±SD)), 16 (±6) M-1s-1 x 104. Besides, the Kd in assay [1] (SPR, 25°C) stood at 210 nM; in assay [1] (SPR, 37 °C), 350 nM; in assay [2] (SPR, 25°C, n=1) it was 0.44 nM; in assay [2] (SPR, 37°C, n=4, mean (±SD)), 4 nM. For the same molecule, the kd in assay [1] (SPR, 25°C) was determined as 0.006 s⁻¹; in assay [1] (SPR, 37 °C) it was 0.026 s⁻¹.

`CC(=O)N[C@H]1CSSC[C@@H](C(=O)NCC(=O)NCC(=O)N[C@@H](CO)C(=O)N[C@@H](CCCCN)C(=O)O)NC(=O)[C@H](CCCNC(=N)N)NC(=O)[C@H](CC(C)C)NC(=O)[C@H](CCCNC(=N)N)NC(=O)[C@H](CCCNC(=N)NCCOCCOCCN=[N+]=[N-])NC(=O)[C@H]([C@@H](C)O)NC(=O)[C@H](CO)NC(=O)[C@H](C(c2ccccc2)c2ccccc2)NC(=O)[C@H](CC(=O)O)NC(=O)[C@H](Cc2ccccc2)NC(=O)[C@H](CCC(N)=O)NC1=O` (Ac-CQFD[Dip]ST[X1]RLRCGGSK-OH; disulfide 1-12) yielded a Kd in assay [2] (SPR sensogram (Fig. 1c E83 / Supplementary Fig. 1a), 37 °C, n = 1) of 2.1 nM. In assay [2] (SPR, 37 °C), the “half-life of the interaction (τ)” value is 1.38 h.

With `CC(C)C[C@@H]1NC(=O)[C@H](CCCNC(=N)N)NC(=O)[C@H](CCCNC(=N)N)NC(=O)[C@H]([C@@H](C)O)NC(=O)[C@H](CO)NC(=O)[C@H](CC(C)C)NC(=O)[C@H](CC(=O)O)NC(=O)[C@H](Cc2ccccc2)NC(=O)[C@H](CCC(N)=O)NC(=O)CCSSC[C@@H](C(=O)O)NC(=O)[C@H](CCCCN)NC1=O` [(MPT) QFDLSTRRLKC], the ka in assay [1] (setting [3]) is on record as 1.8 M-1s-1 x 104. In addition, in assay [1] (SPR, 25°C), binding was characterised by a dissociation constant (Kd) of 1000 nM and the kd amounted to 0.018 s⁻¹.

For `CC(C)C[C@@H]1NC(=O)[C@H](CCCNC(=N)N)NC(=O)[C@H](CCCNC(=N)N)NC(=O)[C@H]([C@@H](C)O)NC(=O)[C@H](CO)NC(=O)[C@H](C(c2ccccc2)c2ccccc2)NC(=O)[C@H](CC(=O)O)NC(=O)[C@H](Cc2ccccc2)NC(=O)[C@H](CCC(N)=O)NC(=O)[C@@H](N)CSSC[C@@H](C(=O)O)NC(=O)[C@H](CCCCN)NC1=O` [CQFDA(Ph)2STRRLKC], the ka in assay [1] (setting [3]) is given as 20 M-1s-1 x 104. In assay [1] (SPR, 25°C), this molecule yielded a Kd of 40 nM and a kd of 0.008 s⁻¹.
